These results are taken from patent US4472573A, “Nitrosourea derivative and process for preparing same” (Tanabe Seiyaku Co., Ltd., priority 1981, dated 1984).

The test system of one data set is lymphoid leukemia L-1210. As to conditions: U.S. Pat. No. 4,086,415; cited from earlier work.
Data set [1] has as its system Ehrlich ascites carcinoma. The data set is described as follows: Preventive effect against the growth of Ehrlich ascites carcinoma (Method A). As to conditions: for Toxicity / the number of mice died / the number of mice used / minimal effective dose / Inhibition ratio: once a day for 5 days; for Therapeutic index: MTD / MED; for minimal effective dose: Mus musculus, Ehrlich, ip, 120 h, minimum dose showing 100% inhibition, i.p., read-out: MED (Minimum Effective Dose). It is filed as in vivo, ICR mice. As to the method:
(§1) (A) Preventive Effect Against the Growth of Ehrlich Ascites Tumor
(§2) 10^6 tumor cells of Ehrlich ascites carcinoma were inoculated intraperitoneally into a group of five femal mice (ICR mice, body weight: 19-23 g). A test compound was dissolved in a physiological saline solution (In the case where CCNU was employed as the test compound, said compound was suspended in a physiological saline solution containing 0.1% NIKKOL HCO-60 (trademark; a surface active agent manufactured by Nikko Chemicals Co. Ltd.)) and administered intraperitoneally to the mice. The administration of the test compound was begun 24 hours after the inoculation of the tumor cells and performed once a day for 5 days. The volume of ascites in the treated mice were measured after 7 days of the experiment.
(§3) ^(a) T = the average volume of ascites in the treated mice
(§4) C = the average volume of ascites in the untreated mice (control group of
(§5) 100% inhibition for the growth of Ehrlich ascites tumor in mice without
(§6) 100% inhibition for the growth of said ascites tumor)
(§7) ^(e) Therapeutic index = MTD / MED
(§8) *the number of mice died / the number of mice used

Another data set concerns leukemic cells. As to conditions: Japanese Patent Publication (unexamined) No. 141815/1976; cited from earlier work.
A short description of data set [2]: Preventive effect against the growth of Ehrlich ascites carcinoma (Method A). It is filed as in vivo, ICR mice. The settings on record: mouse, in vivo, ip; maximum dose showing 100% inhibition without causing death; i.p., once a day for 5 days; read-out: MTD (Maximum Tolerated Dose). As to the method: as §1, §2, §3, §4, §5, §6, §7, §8
In another data set the test system is Leukemia L-1210. The data set is described as follows: Effect on life span of mice implanted with Leukemia L-1210 (Method B). As to conditions: once a day for 5 days; for 60-day survivors: survived for 60 days / used. It is filed as in vivo, BDF1 mice. As to the method:
(B) Effect on the Life Span of Mice Implanted with Leukemic Cells of L-1210
10^5 leukemic cells of L-1210 were inoculated intraperitoneally into a group of four male mice (BDF1 mice, body weight: 19-23 g). A test compound was dissolved in a physiological saline solution and administered intraperitoneally to the mice. The administration of the test compound was begun 24 hours after the inoculation of the leukemic cells and performed once a day for 5 days. The survival days of the treated mice were observed.
^(a) T = the mean survival days of the treated mice
C = the mean survival days of the untreated mice (control group of mice)
^(c) 60day survivors = the number of mice survived for 60 days / the […]

For the compound `O=NN(CCCl)C(=O)N[C@@H]1O[C@H](CO)[C@@H](O)[C@H](O)[C@@H]1O` [1-(2-chloroethyl)-1-nitroso-3-β-(D-mannopyranosyl)urea], the “life span of mice implanted with L-1210” value in the data set on lymphoid leukemia L-1210 is on record as “increase the life span of mice”.

Turning to `O=NN(CCCl)C(=O)NC1CCCCC1` [CCNU, 1-(2-chloroethyl)-1-nitroso-3-cyclohexylurea, reference compound], in data set [1] (100 mg/kg/day i.p.), the “Toxicity” value was “Toxic” and the “the number of mice died / the number of mice used” value was 5/5. In data set [1], the Therapeutic index is on record as 4 and the minimal effective dose was 12.5 mg/kg/day.

Turning to `O=NN(CCCl)C(=O)N[C@@H]1O[C@H](CO)[C@@H](O[C@H]2O[C@H](CO)[C@@H](O)[C@H](O)[C@H]2O)[C@H](O)[C@H]1O` [1-(2-chloroethyl)-1-nitroso-3-β-(D-maltosyl)urea], the “anti-tumor activity against leukemic cells” value in the data set with leukemic cells is on record as “show anti-tumor activity against leukemic cells”.

As to `CCCCN(C(=O)N(CCCl)N=O)[C@H]1[C@@H](OC)O[C@H](CO)[C@@H](O)[C@@H]1O` [Compound 1, 1-(2-chloroethyl)-1-nitroso-3-n-butyl-3-(methyl α-D-glucopyranosid-2-yl)urea], the MTD (commonly the largest dose that counted as tolerated) in data set [2] turned out to be 100 mg/kg/day. Further, the Inhibition ratio in data set [1] (0.78 mg/kg/day i.p.) is recorded as 34.1%; in data set [1] (1.56 mg/kg/day i.p.), 100%; in data set [1] (6.25 mg/kg/day i.p.), 100%; in data set [1] (25 mg/kg/day i.p.), 100%; in data set [1] (100 mg/kg/day i.p.) it was 100%. Besides, the “Toxicity” value in data set [1] (200 mg/kg/day i.p.) was “Toxic”. Besides, the Therapeutic index in data set [1] amounted to 64. Moreover, in data set [1], the minimal effective dose was determined as 1.56 mg/kg/day.

As to `CCCN(C(=O)N(CCCl)N=O)[C@H]1[C@@H](OC)O[C@H](CO)[C@@H](O)[C@@H]1O` [Compound 2, 1-(2-chloroethyl)-1-nitroso-3-n-propyl-3-(methyl α-D-glucopyranosid-2-yl)urea], the ILS (in general, how much longer treated animals lived than controls) in the data set with Leukemia L-1210 (6.25 mg/kg/day i.p.) is given as 78.8%; in the data set on Leukemia L-1210 (12.5 mg/kg/day i.p.), over 366.3%; in the data set on Leukemia L-1210 (25 mg/kg/day i.p.), over 650.0%; in the data set on Leukemia L-1210 (50 mg/kg/day i.p.), over 650.0%. Besides, the 60-day survivors is 0/4 in the data set with Leukemia L-1210 (6.25 mg/kg/day i.p.), 2/4 with Leukemia L-1210 (12.5 mg/kg/day i.p.), 4/4 with Leukemia L-1210 (25 mg/kg/day i.p.) and 4/4 in the data set on Leukemia L-1210 (50 mg/kg/day i.p.). Further, the MTD in data set [2] was 50 mg/kg/day. Besides, the Inhibition ratio in data set [1] (0.39 mg/kg/day i.p.) is 15.2%; in data set [1] (0.78 mg/kg/day i.p.), 100%; in data set [1] (3.12 mg/kg/day i.p.) it was 100%; in data set [1] (12.5 mg/kg/day i.p.), 100%; in data set [1] (50 mg/kg/day i.p.), 100%. For the same compound, the “Toxicity” value in data set [1] (100 mg/kg/day i.p.) is recorded as “Toxic”. Further, in data set [1] (100 mg/kg/day i.p.), the “the number of mice died / the number of mice used” value is reported as 2/5. The compound further registered a Therapeutic index in data set [1] of 64. For the same compound, the minimal effective dose in data set [1] was determined as 0.78 mg/kg/day.

Regarding `O=NN(CCCl)C(=O)N[C@@H]1O[C@H](CO)[C@@H](O)[C@H](O)[C@H]1O` [GANU, 1-(2-chloroethyl)-1-nitroso-3-(β-D-glucopyranosyl)urea, reference compound], the “life span of mice implanted with L-1210” value in the data set with lymphoid leukemia L-1210 is “increase the life span of mice”. For the same compound, the MTD in data set [2] is 12.5 mg/kg/day. In addition, the Inhibition ratio in data set [1] (12.5 mg/kg/day i.p.) worked out at 100%. Moreover, in data set [1] (25 mg/kg/day i.p.), the “Toxicity” value is reported as “Toxic” and the “the number of mice died / the number of mice used” value is 5/5. Further, in data set [1], the Therapeutic index is on record as 32 and the minimal effective dose is 0.39 mg/kg/day.

For `O=NN(CCCl)C(=O)N[C@@H]1O[C@H](CO)[C@@H](O[C@@H]2O[C@H](CO)[C@H](O)[C@H](O)[C@H]2O)[C@H](O)[C@H]1O` [1-(2-chloroethyl)-1-nitroso-3-β-(D-lactosyl)urea], the “anti-tumor activity against leukemic cells” value with leukemic cells was “show anti-tumor activity against leukemic cells”.

Regarding `COCCN(C(=O)N(CCCl)N=O)[C@H]1[C@@H](OC)O[C@H](CO)[C@@H](O)[C@@H]1O` [Compound 4, 1-(2-chloroethyl)-1-nitroso-3-(2-methoxyethyl)-3-(methyl α-D-glucopyranosid-2-yl)urea], the ILS in the data set on Leukemia L-1210 (6.25 mg/kg/day i.p.) was 93.8%; with Leukemia L-1210 (12.5 mg/kg/day i.p.) it was over 243.8%; with Leukemia L-1210 (25 mg/kg/day i.p.), over 650.0%; in the data set with Leukemia L-1210 (50 mg/kg/day i.p.), over 650.0%. Moreover, the 60-day survivors with Leukemia L-1210 (6.25 mg/kg/day i.p.) was 0/4; with Leukemia L-1210 (12.5 mg/kg/day i.p.), 1/4; with Leukemia L-1210 (25 mg/kg/day i.p.) it was 4/4; with Leukemia L-1210 (50 mg/kg/day i.p.) it was 4/4. Further, in data set [2], the MTD is 50 mg/kg/day. The Inhibition ratio in data set [1] (0.19 mg/kg/day i.p.) stood at 69.6%; in data set [1] (0.39 mg/kg/day i.p.) it was 100%; in data set [1] (0.78 mg/kg/day i.p.), 100%; in data set [1] (3.12 mg/kg/day i.p.) it was 100%; in data set [1] (12.5 mg/kg/day i.p.), 100%; in data set [1] (50 mg/kg/day i.p.) it was 100%. The “Toxicity” value in data set [1] (100 mg/kg/day i.p.) is reported as “Toxic”. For the same compound, the “the number of mice died / the number of mice used” value in data set [1] (100 mg/kg/day i.p.) was 3/5. The compound further gave a Therapeutic index in data set [1] of 128. For the same compound, the minimal effective dose in data set [1] was 0.39 mg/kg/day.

As to `CO[C@H]1O[C@H](CO)[C@@H](O)[C@H](O)[C@H]1N(C)C(=O)N(CCCl)N=O` [Compound 5, 1-(2-chloroethyl)-1-nitroso-3-methyl-3-(methyl α-D-glucopyranosid-2-yl)urea], the MTD in data set [2] was 100 mg/kg/day. In addition, the Inhibition ratio in data set [1] (0.39 mg/kg/day i.p.) turned out to be 9.8%; in data set [1] (0.78 mg/kg/day i.p.), 100%; in data set [1] (1.56 mg/kg/day i.p.) it was 100%; in data set [1] (6.25 mg/kg/day i.p.), 100%; in data set [1] (25 mg/kg/day i.p.), 100%; in data set [1] (100 mg/kg/day i.p.), 100%. Besides, the “Toxicity” value in data set [1] (200 mg/kg/day i.p.) is recorded as “Toxic”. The “the number of mice died / the number of mice used” value in data set [1] (200 mg/kg/day i.p.) was 5/5. The compound also yielded a Therapeutic index in data set [1] of 128. Besides, the minimal effective dose in data set [1] worked out at 0.78 mg/kg/day.

As for `CO[C@H]1O[C@H](CO)[C@@H](O)[C@H](O)[C@H]1N(CC(C)C)C(=O)N(CCCl)N=O` [Compound 3, 1-(2-chloroethyl)-1-nitroso-3-isobutyl-3-(methyl α-D-glucopyranosid-2-yl)urea], the ILS is 114.9% in the data set on Leukemia L-1210 (12.5 mg/kg/day i.p.), over 689.5% in the data set on Leukemia L-1210 (25 mg/kg/day i.p.) and over 689.5% in the data set with Leukemia L-1210 (50 mg/kg/day i.p.). Also, the 60-day survivors in the data set on Leukemia L-1210 (12.5 mg/kg/day i.p.) was 0/4; with Leukemia L-1210 (25 mg/kg/day i.p.) it was 4/4; with Leukemia L-1210 (50 mg/kg/day i.p.), 4/4. Besides, the MTD in data set [2] stood at 50 mg/kg/day. The Inhibition ratio in data set [1] (0.39 mg/kg/day i.p.) is on record as 45.7%; in data set [1] (0.78 mg/kg/day i.p.), 100%; in data set [1] (3.12 mg/kg/day i.p.) it was 100%; in data set [1] (12.5 mg/kg/day i.p.) it was 100%; in data set [1] (50 mg/kg/day i.p.), 100%. The “Toxicity” value in data set [1] (100 mg/kg/day i.p.) is reported as “Toxic”. The “the number of mice died / the number of mice used” value in data set [1] (100 mg/kg/day i.p.) is 4/5. The Therapeutic index in data set [1] is listed as 64. Moreover, the minimal effective dose in data set [1] is 0.78 mg/kg/day.
